Measured values reported in patent US20070183976A1, “Composition for ultrasound therapy and pharmaceutical liquid composition containing the same” (IMARX THERAPEUTICS, INC., priority 2006, published 2007).

Tested on: artificial thrombosis
Assay: Fibrinolysis of artificial thrombosis (Chandler's method) with ultrasonic catheter
Assay type: biochemical, human
Conditions: average of two tests; for time for achieving 20% fibrinolysis: FIG. 4, blood from one person
Procedure: An artificial thrombosis was formed by Chandler's method. A sample of blood (1 ml) collected from a healthy person was entered into a flexible tube (inside diameter 3 mm, length 265 mm) and calcium chloride was added. The tube was shaped like a loop and was rotated at 12 r.p.m. for 20 minutes to give an artificial thrombosis model.
A ceramic ultrasonic element (width 2 mm, length 5 mm, thickness 1 mm) was inserted into the tip of a catheter (diameter 2 mm), and an oscillating element was connected to an oscillator provided outside with a fine connector passed through the catheter. A fine tube for pouring a test solution was provided at an opening opposite to the opening of the catheter end.
The artificial thrombosis prepared as described above was added to a test tube together with blood, and the ultrasonic catheter was inserted into the test tube so that the end of the catheter was set close to the portion of the artificial thrombosis (at a distance of about 5 mm). To the test tube was added a mixture of urokinase and a booster prepared as in Example 1 at a rate of 1 ml per minute, wherein urokinase (concentration 1200 Ill/ml) and the booster were mixed immediately before pouring at a mixing ratio of 1:1 by mass. The mixture was refluxed while keeping the volume of the test solution at a constant level by removing excess volume of the solution by suction.
The mixture was exposed to the ultrasound at a frequency of 170 KHz to by a pulse method (exposure for 2 seconds followed by termination of exposure for 4 seconds) for 2 minutes. Total exposure time was 40 seconds). After the exposure, the ultrasonic catheter was removed from the test tube, and the mixture was incubated at 37° C. for between 5 and 120 minutes, washed with a physiological saline solution several times and dried overnight. Thereafter, the dried mixture was weighed. […]
The rate of fibrinolysis was calculated by the following equation: Fibrinolysis rate (%)=(A−B)/A×100, wherein • A is the weight of thrombosis in control; and • B is the weight of thrombosis treated. […]

Substance: urokinase
- time for achieving 20% fibrinolysis (with exposure of ultrasound 170 KHz pulsed, 40 s total): 30 min
- time for achieving 20% fibrinolysis (without exposure of ultrasound, urokinase 1200 IU/ml): about 45 minutes
- treatment time at which 50% fibrinolysis was achieved (FIG. 5, with exposure of ultrasound, energy reduced by 15%, blood from another person): 60 min
